Reference: patent US20200031778A1, “NOVEL 5-SUBSTITUTED IMIDAZOLYLMETHYL DERIVATIVES” (Bayer CropScience Aktiengesellschaft, priority 2016, published 2020)
Like-named read-outs stand apart in the source and are kept apart here.

Experiments:
[1] = Log P by HPLC on reversed phase columns (EEC directive 79/831 Annex V.A8; methods [a], [b], [c]); format: physicochemical; conditions: method [a]
Outline: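 Log P derived from retention times, interpolated linearly between bracketing straight-chain alkan-2-ones (3–16 carbons) of known Log P. Eluents ran acetonitrile 10% to 95% against water with 0.1% formic acid ([a], acidic), 0.001 M ammonium acetate ([b], neutral) or 0.1% phosphoric acid ([c], acidic); UV read-out.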

Septoria tritici = assay: Example C: in vivo preventive test on Septoria tritici (leaf spot on wheat); conditions: Zymoseptoria tritici, 576 h, read-out: efficacy
Description: Example C: In Vivo Preventive Test on Septoria Tritici (Leaf Spot on Wheat)
(§1) The active ingredients were made soluble and homogenized in a mixture of Dimethyl sulfoxide/Acetone/Tween® 80 and then diluted in water to the desired concentration.
(§2) The young plants of wheat were treated by spraying the active ingredient prepared as described above. Control plants were treated only with an aqueous solution of Acetone/Dimethyl sulfoxide/Tween® 80.
After 24 hours, the plants were contaminated by spraying the leaves with an aqueous suspension of Septoria tritici spores. The contaminated wheat plants were incubated for 72 hours at 18° C. and at 100% relative humidity and then for 21 days at 20° C. and at 90% relative humidity.
The test was evaluated 24 days after the inoculation. 0% means an efficacy which corresponds to that of the control plants while an efficacy of 100% means that no disease was observed.

Sphaerotheca fuliginea = assay: Example D: in vivo preventive test on Sphaerotheca fuliginea (powdery mildew on cucurbits); conditions: Podosphaera fuliginea, 360 h, read-out: efficacy
Description: Example D: In Vivo Preventive Test on Sphaerotheca Fuliginea (Powdery Mildew on Cucurbits)
as §1
The young plants of gherkin were treated by spraying the active ingredient prepared as described above. Control plants were treated only with an aqueous solution of Acetone/Dimethyl sulfoxide/Tween® 80.
After 24 hours, the plants were contaminated by spraying the leaves with an aqueous suspension of Sphaerotheca fuliginea spores. The contaminated gherkin plants were incubated for 72 hours at 18° C. and at 100% relative humidity and then for 12 days at 20° C. and at 70-80% relative humidity.
The test was evaluated 15 days after the inoculation. 0% means an efficacy which corresponds to that of the control plants while an efficacy of 100% means that no disease was observed.

Puccinia recondita = assay: Example B: in vivo preventive test on Puccinia recondita (brown rust on wheat); conditions: 264 h, read-out: efficacy
Description: Example B: In Vivo Preventive Test on Puccinia Recondita (Brown Rust on Wheat)
as §1, §2
After 24 hours, the plants were contaminated by spraying the leaves with an aqueous suspension of Puccinia recondita spores. The contaminated wheat plants were incubated for 24 hours at 20° C. and at 100% relative humidity and then for 10 days at 20° C. and at 70-80% relative humidity.
(§3) The test was evaluated 11 days after the inoculation. 0% means an efficacy which corresponds to that of the control plants while an efficacy of 100% means that no disease was observed.

Uromyces appendiculatus = assay: Example E: in vivo preventive test on Uromyces appendiculatus (bean rust); conditions: 264 h, read-out: efficacy
Description: Example E: In Vivo Preventive Test on Uromyces Appendiculatus (Bean Rust)
as §1
The young plants of bean were treated by spraying the active ingredient prepared as described above. Control plants were treated only with an aqueous solution of Acetone/Dimethyl sulfoxide/Tween® 80.
After 24 hours, the plants were contaminated by spraying the leaves with an aqueous suspension of Uromyces appendiculatus spores. The contaminated bean plants were incubated for 24 hours at 20° C. and at 100% relative humidity and then for 10 days at 20° C. and at 70-80% relative humidity.
as §3

[2] = 500 ppm of active ingredient, wheat plants, preventive spray, evaluated 24 days after inoculation
[3] = 500 ppm of active ingredient, gherkin plants, preventive spray, evaluated 15 days after inoculation
[4] = reversed phase HPLC column, HPLC on reversed phase columns
[5] = 500 ppm of active ingredient, wheat plants, preventive spray, evaluated 11 days after inoculation
[6] = 500 ppm of active ingredient, bean plants, preventive spray, evaluated 11 days after inoculation

| chromatographic logP [1, 4] | Compound | chromatographic logP ([1]; HPLC on reversed phase columns) | pest or weed control at 500 ppm (Septoria tritici; [2]) [%] | pest or weed control at 500 ppm (Sphaerotheca fuliginea; [3]) [%] | pest or weed control at 500 ppm (Puccinia recondita; [5]) [%] | pest or weed control at 500 ppm (Uromyces appendiculatus; [6]) [%] | pest or weed control at 500 ppm (Puccinia recondita) [%] | pest or weed control at 500 ppm (Septoria tritici) [%] | pest or weed control at 500 ppm (Sphaerotheca fuliginea) [%] | pest or weed control at 500 ppm (Uromyces appendiculatus) [%] | chromatographic logP ([1]; HPLC on reversed phase column) |
| --- | --- | --- | --- | --- | --- | --- | --- | --- | --- | --- | --- |
| – | C[Si](C)(C)C#Cc1ccc(C(O)(Cn2cncc2C#N)C2(F)CC2)c(Cl)c1 (stereo not drawn) [I-394, 3-[2-[2-chloro-4-(2-trimethylsilylethynyl)phenyl]-2-(1-fluorocyclopropyl)-2-hydroxy-ethyl]imidazole-4-carbonitrile] | 4.06 | 90 to 100 | 90 to 100 | – | – | – | – | – | – | – |
| 2.25 | OC(Cn1cncc1F)c1cnc(Oc2ccc(Br)cc2)cc1C(F)(F)F (stereo not drawn) [I-97, 1-[6-(4-bromophenoxy)-4-(trifluoromethyl)-3-pyridyl]-2-(5-fluoroimidazol-1-yl)ethanol] | – | 90 to 100 | 90 to 100 | 70 to 79 | 90 to 100 | – | – | – | – | – |
| 2.37 | CC(O)(Cn1cncc1F)c1cnc(Oc2ccc(Br)cc2)cc1C(F)(F)F (stereo not drawn) [I-210, 2-[6-(4-bromophenoxy)-4-(trifluoromethyl)-3-pyridyl]-1-(5-fluoroimidazol-1-yl)propan-2-ol] | – | 90 to 100 | 90 to 100 | 70 to 79 | 90 to 100 | – | – | – | – | – |
| 1.75 | NC(=S)c1cncn1CC(O)(c1ccc(Br)cc1Cl)C1(F)CC1 (stereo not drawn) [I-432, 3-[2-(4-bromo-2-chloro-phenyl)-2-(1-fluorocyclopropyl)-2-hydroxy-ethyl]imidazole-4-carbothioamide] | – | 90 to 100 | 90 to 100 | 90 to 100 | 90 to 100 | – | – | – | – | – |
| – | CC(=O)OC(Cn1cncc1F)c1cnc(Oc2ccc(Cl)cc2)cc1C(F)(F)F (stereo not drawn) [I-133, [1-[6-(4-chlorophenoxy)-4-(trifluoromethyl)-3-pyridyl]-2-(5-fluoroimidazol-1-yl)ethyl]acetate] | – | 90 to 100 | 90 to 100 | 90 to 100 | 90 to 100 | – | – | – | – | – |
| 2.21 | C=CC(C)C(O)(Cn1cncc1C#N)C1(Cl)CC1 (stereo not drawn) [I-311, 1-[2-(1-chlorocyclopropyl)-2-hydroxy-3-methylpent-4-en-1-yl]-1H-imidazole-5-carbonitrile] | – | 90 to 100 | 90 to 100 | 80 to 89 | 90 to 100 | – | – | – | – | – |
| 2.82 | COC(Cn1cncc1F)c1cnc(Oc2ccc(Cl)cc2)cc1C(F)(F)F (stereo not drawn) [I-131, 2-(4-chlorophenoxy)-5-[2-(5-fluoroimidazol-1-yl)-1-methoxy-ethyl]-4-(trifluoromethyl)pyridine] | – | 90 to 100 | 90 to 100 | 90 to 100 | – | – | – | – | – | – |
| 3.62 | CC(O)(Cn1cncc1C#N)c1ccc(Oc2ccc(Br)cc2)cc1C(F)(F)F (stereo not drawn) [I-208, 1-{2-[4-(4-bromophenoxy)-2-(trifluoromethyl)phenyl]-2-hydroxypropyl}-1H-imidazole-5-carbonitrile] | – | 70 to 79 | 90 to 100 | 90 to 100 | 90 to 100 | – | – | – | – | – |
| 1.57 | CCC(O)(Cn1cncc1C#N)c1ccc(F)cc1 (stereo not drawn) [I-245, 3-[2-(4-fluorophenyl)-2-hydroxy-butyl]imidazole-4-carbonitrile] | – | 90 to 100 | 90 to 100 | – | – | – | – | – | – | – |
| 2.86 | CCCCC(O)(Cn1cncc1C#N)c1ccc(Cl)cc1 (stereo not drawn) [I-256, 3-[2-(4-chlorophenyl)-2-hydroxy-hexyl]imidazole-4-carbonitrile] | – | 80 to 89 | 90 to 100 | 80 to 89 | 90 to 100 | – | – | – | – | – |
| – | C#Cc1ccc(C(O)(Cn2cncc2C#N)C2(F)CC2)c(Cl)c1 (stereo not drawn) [I-395, 3-[2-(2-chloro-4-ethynyl-phenyl)-2-(1-fluorocyclopropyl)-2-hydroxy-ethyl]imidazole-4-carbonitrile] | 2.39 | – | – | – | – | 80 to 89 | 90 to 100 | 90 to 100 | 90 to 100 | – |
| 3.55 | CC(O)(Cn1cncc1C#N)c1ccc(Oc2ccc(Br)cc2)cc1Cl (stereo not drawn) [I-195, 3-[2-[4-(4-bromophenoxy)-2-chloro-phenyl]-2-hydroxy-propyl]imidazole-4-carbonitrile] | – | 90 to 100 | 90 to 100 | 90 to 100 | 90 to 100 | – | – | – | – | – |
| – | C#CCOc1ccc(C(O)(Cn2cncc2C#N)C2(F)CC2)c(F)c1 (stereo not drawn) [I-506, 3-[2-(1-fluorocyclopropyl)-2-(2-fluoro-4-prop-2-ynoxy-phenyl)-2-hydroxy-ethyl]imidazole-4-carbonitrile] | – | – | – | – | – | 80 to 89 | 90 to 100 | 90 to 100 | 80 to 89 | 2.23 |
| 3.31 | N#Cc1cncn1CC(O)c1ccc(Oc2ccc(Br)cc2)cc1Cl (stereo not drawn) [I-40, 3-[2-[4-(4-bromophenoxy)-2-chloro-phenyl]-2-hydroxy-ethyl]imidazole-4-carbonitrile] | – | 80 to 89 | 90 to 100 | 90 to 100 | 90 to 100 | – | – | – | – | – |

| Compound | chromatographic logP [1, 4] | chromatographic logP ([1]; HPLC on reversed phase columns) | pest or weed control at 500 ppm (Septoria tritici; [2]) [%] | pest or weed control at 500 ppm (Sphaerotheca fuliginea; [3]) [%] | pest or weed control at 500 ppm (Puccinia recondita; [5]) [%] | pest or weed control at 500 ppm (Uromyces appendiculatus; [6]) [%] | pest or weed control at 500 ppm (Puccinia recondita) [%] | pest or weed control at 500 ppm (Septoria tritici) [%] | pest or weed control at 500 ppm (Sphaerotheca fuliginea) [%] | pest or weed control at 500 ppm (Uromyces appendiculatus) [%] | chromatographic logP ([1]; HPLC on reversed phase column) |
| --- | --- | --- | --- | --- | --- | --- | --- | --- | --- | --- | --- |
| N#Cc1cncn1CC(O)(c1ccc(-c2ccc(Cl)cc2)cc1Cl)C1(F)CC1 (stereo not drawn) [I-393, 3-[2-[2-chloro-4-(4-chlorophenyl)phenyl]-2-(1-fluorocyclopropyl)-2-hydroxy-ethyl]imidazole-4-carbonitrile] | 3.64 | – | – | – | – | – | 90 to 100 | 80 to 89 | 90 to 100 | 90 to 100 | – |
